Assay results taken from publication PMC12333940, “A prometabolite strategy inhibits cardiometabolic disease in an ApoE^–/– murine model of atherosclerosis” (JCI Insight, 2025).
Where “and” joins values, the source holds several entries; their conditions need not be identical. Equal entries are not always repeated. One block for each compound: values may come before it.

Key:
RAW 264.7 macrophages = assay: Flow cytometry of iNOS, CD80, CD86 in LPS-stimulated RAW 264.7; type: cell-based
Experimental: RAW 264.7 (ATCC, TIB-71) macrophages were cultured at 37°C and 5% CO2 in DMEM (Gibco) supplemented with 1 mM HEPES, 1 mM sodium pyruvate, 10% FBS, and penicillin/streptomycin. Cells were plated in round-bottom 96-well plates at 100,000 cells per well and incubated with different concentrations of either NaBut or SerBut (0.15–12 mM) for 24 hours. […] The cell culture supernatant was collected and analyzed by LEGENDPlex to analyze the concentrations of cytokines (BioLegend). Cell phenotype was analyzed using flow cytometry (Cytek Aurora).
Flow cytometry was performed using a BD LSRFortessa or a Cytek Aurora full-spectrum cytometer. Data were analyzed using FlowJo version 10.8.0. eFluor 780 Viability Dye (Invitrogen, 65-0865-14) and antibodies against the following markers were used in the RAW 264.7 macrophage in vitro studies: CD86 (BV421; BD Horizon, catalog 564198), CD80 (BC650; BioLegend, clone 16-10A1, catalog 104732), and iNOS (APC; Invitrogen, clone CXNFT, catalog 17-5920-9). Live/Dead Blue (Invitrogen, 123105A) and antibodies against the following markers were used in the atherosclerosis mouse models: F4/80 (FITC; BioLegend, clone BM8, catalog 123108), CD3e (BV605; BD Biosciences, clone 145-2C11, catalog 563565), CD4 (BUV496; BD Biosciences, clone GK 1.5, catalog 612952), RORγt (AF647; BD Biosciences, clone Q31-378, catalog 562682), FoxP3 (AF488, BD Biosciences, clone MF23, catalog 560403), CCR2 (PE; R&D Systems, catalog FAB5538P), Ly6C (APC-Cy7; BioLegend, catalog 128026, clone HK1.4), Ly6G (AF488; BioLegend, catalog 127626), CD8 (APC-Cy7; BioLegend, clone 53-6.7, catalog 100714), CD45 (BUV805; Invitrogen, clone 30-F11, catalog 368-0451-82), and CD25 (PerCP-Cy5.5; BioLegend, clone PC61, catalog 102030).

[1] = Biodistribution of free butyrate after oral gavage, ApoE–/– mice on HFD
Experimental: Samples were prepared and derivatized as described previously ([28]). Stock solutions were prepared in water/acetonitrile (ACN) (1:1 v/v): 3-nitrophenylhydrazine (NPH), and 1-ethyl-3-(3-dimethylaminopropyl)carbodiimide (EDC) (in 1% pyridine). The internal standard, 4-methylvaleric acid, was added. Samples were mixed with NPH and EDC stocks at a 1:1:1 volume ratio. The mixture was heated in a heating block at 60°C for 30 minutes. Samples were filtered through 0.22 μm filters and stored at 4°C before analysis.
An Agilent 6460 Triple Quad MS-MS was used to detect the derivatized butyrate. Both derivatized butyrate-NPH and 4-methylvaleric-NPH were detected in negative mode. Column: Thermo Fisher Scientific C18 4.6 × 50 mm, 1.8 μm particle size, at room temperature. Mobile phase A: water with 0.1% v/v formic acid. Mobile phase B: ACN with 0.1% v/v formic acid. Injection volume: 5.0 μL. Flow rate: 0.5 mL/min. Gradient of solvent: 15% mobile phase B at 0.0 minutes; 100% mobile phase B at 3.5 minutes; 100% mobile phase B at 6.0 minutes; 15% mobile phase B at 6.5 minutes. The MS conditions were optimized using pure butyrate-NPH or 4-methylvaleric-NPH at 1 mM. The fragment voltage was set to 135 V, and the collision energy was 18 V. Multiple reaction monitoring (MRM) of 222 → 137 was assigned to butyrate, and MRM of 250 → 137 was assigned to 4-methylvaleric acid as the internal standard. The ratio between MRM of butyrate and 4-methylvaleric acid was used to quantify butyrate concentration.
Three hours after administration, mice were anesthetized under isoflurane, and blood was collected via submandibular vein into EDTA-coated tubes. The tubes were centrifuged, and plasma was collected and frozen at –80°C. […] Organs, including liver, MLNs, ILNs, spleen, lung, heart, aorta, small intestine, and large intestine were collected and then transferred to –80°C until further processing. To extract butyrate from plasma or organs, a 1:1 (v/v) ACN/water solution was used. Plasma was mixed 1:1 with the ACN/water solution and centrifuged to remove denatured proteins. Organs were weighed, transferred to Lysing Matrix D tubes (MP Biomedicals), and combined with the 1:1 v/v ACN/water solution. Samples were then lysed using a FastPrep-24 5G homogenizer (MP Biomedicals) and centrifuged. The supernatants were collected for butyrate measurement by LC-MS/MS. The final butyrate content in each organ was normalized by organ weight.

ApoE^–/– mice on an HFD = assay: Inflammatory cytokines in plasma (LEGENDPlex); type: in vivo, mouse; design: Plasma LegendPlex IFNy / Plasma LegendPlex IL-1B / Plasma LegendPlex IL-6: unit not given here; details: for plasma IL-1β / IL-6 and IFN-γ in plasma: 6 weeks; for IL-6 and IFN-γ in plasma: compared with control groups; for Plasma LegendPlex IFNy / Plasma LegendPlex IL-1B / Plasma LegendPlex IL-6: individual mice
Experimental: SerBut water was pH adjusted using 10 M NaOH to a final pH of 7.4. […] After 6 weeks, mice were euthanized. […] The liver was harvested and part was homogenized in tissue protein extraction reagent buffer (Invitrogen, 78510) supplemented with protease inhibitor mini tablets (Thermo Fisher Scientific, PIA32955) for Western blotting and qPCR. […] Blood chemical analysis was performed on an Alfa […] Chemistry Analyzer. Reagent kits from Alfa Wasserman were used according to manufacturer's instructions to analyze plasma: lipase (catalog SA1045), HDL-C (catalog SA2038, LDL-C (catalog SA1040), AST (catalog SA1053), ALT (catalog SA1052). A LEGENDPlex was utilized to analyze the concentrations of inflammatory cytokines (BioLegend).

[2] = 0.45 mM, 12 Hour LPS stim after Butyrate treament, listed as NB
[3] = 0.45 mM, 12 hour LPS stim before butyrate treatment, listed as NB
[4] = 1.3 mM, 12 Hour LPS stim after Butyrate treament, listed as NB
[5] = 1.3 mM, 12 hour LPS stim before butyrate treatment, listed as NB
[6] = 4 mM, 12 Hour LPS stim after Butyrate treament, listed as SB
[7] = 4 mM, 12 hour LPS stim before butyrate treatment, listed as SB
[8] = 12 mM, 12 Hour LPS stim after Butyrate treament, listed as SB
[9] = 12 mM, 12 hour LPS stim before butyrate treatment, listed as SB

Compound: CCCC(=O)[O-].[Na+] [NaBut, sodium butyrate, reference compound]
CD80 MFI (RAW 264.7 macrophages; 0.15 mM 24 h, then LPS 6 h): 22618 and 22070 and 22276
iNOS MFI (RAW 264.7 macrophages; 0.15 mM 24 h, then LPS 6 h): 132178 and 120454 and 127565
CD80 MFI (RAW 264.7 macrophages; 0.45 mM 24 h, then LPS 6 h): 22987 and 22543 and 22840
iNOS MFI (RAW 264.7 macrophages; 0.45 mM 24 h, then LPS 6 h): 139940 and 135604 and 131383
CD80+ % Live (RAW 264.7 macrophages; [2]): 31.4% and 45.9% and 36.7%
CD86+ % Live (RAW 264.7 macrophages; [2]): 10.9% and 12.8% and 11.6%
iNOS+ %Live (RAW 264.7 macrophages; [2]): 72.8% and 94.5% and 85.8%
CD80+ % Live (RAW 264.7 macrophages; [3]): 55.4% and 59.7% and 52.7%
CD86+ % Live (RAW 264.7 macrophages; [3]): 16.4% and 16% and 15.5%
iNOS+ %Live (RAW 264.7 macrophages; [3]): 39.7% and 50% and 39.3%
CD80 MFI (RAW 264.7 macrophages; 1.3 mM 24 h, then LPS 6 h): 22932 and 22915 and 22360
iNOS MFI (RAW 264.7 macrophages; 1.3 mM 24 h, then LPS 6 h): 123416 and 155157 and 124806
CD80+ % Live (RAW 264.7 macrophages; [4]): 40.8% and 54.3% and 32.8%
CD86+ % Live (RAW 264.7 macrophages; [4]): 22.7% and 26% and 18.7%
iNOS+ %Live (RAW 264.7 macrophages; [4]): 66.2% and 87.1% and 52%
CD80+ % Live (RAW 264.7 macrophages; [5]): 47.8% and 46.8% and 51.4%
CD86+ % Live (RAW 264.7 macrophages; [5]): 16.7% and 17.4% and 18.3%
iNOS+ %Live (RAW 264.7 macrophages; [5]): 31.6% and 29.4% and 31.8%
free butyrate, Plasma ([1]; 3 hours after single gavage of 272 mM butyrate): 4.575 µM
plasma IL-1β (ApoE^–/– mice on an HFD): trend toward reduction
IL-6 and IFN-γ in plasma (ApoE^–/– mice on an HFD): did not
Plasma LegendPlex IFNy (ApoE^–/– mice on an HFD): 43.19 and 71.91 and 156.97 and 1.54 and 133.26 and 33.33 and 25.52 and 29.92 and 11.45
Plasma LegendPlex IL-1B (ApoE^–/– mice on an HFD): 1.73 and 1.26 and 132.12 and 0.34 and 3.85 and 0.46 and 0.64
Plasma LegendPlex IL-6 (ApoE^–/– mice on an HFD): 1.6 and 2.29 and 7.3 and 0.92 and 0.99 and 1.54

free butyrate in liver, ILNs, kidney, spleen, lung and plasma ([1]; 3 hours after gavage): significant increases
free butyrate in the MLNs ([1]; 3 hours after gavage): trending increases
free butyrate in the heart and aorta ([1]; 3 hours after gavage, compared with both NaBut-treated and PBS-treated mice): significantly increased free butyrate
Compound: CCCC(=O)OC[C@H](N)C(=O)O [SerBut, O-butyryl-L-serine]
CD80 MFI (RAW 264.7 macrophages; 1.3 mM 24 h, then LPS 6 h): 22757 and 22379 and 22182 and 22697 and 22413
iNOS MFI (RAW 264.7 macrophages; 1.3 mM 24 h, then LPS 6 h): 133476 and 131849 and 120651 and 126894 and 131328
CD80 MFI (RAW 264.7 macrophages; 4 mM 24 h, then LPS 6 h): 22258 and 21750 and 21713 and 21977 and 22364 and 21487
iNOS MFI (RAW 264.7 macrophages; 4 mM 24 h, then LPS 6 h): 123258 and 124792 and 115548 and 125159 and 131532 and 119298
CD80+ % Live (RAW 264.7 macrophages; [6]): 20.6% and 26% and 25.2%
CD86+ % Live (RAW 264.7 macrophages; [6]): 6.07% and 6.44% and 6.25%
iNOS+ %Live (RAW 264.7 macrophages; [6]): 57.8% and 66.6% and 65.8%
CD80+ % Live (RAW 264.7 macrophages; [7]): 45.8% and 43.1% and 44.5%
CD86+ % Live (RAW 264.7 macrophages; [7]): 14.9% and 14.1% and 14.2%
iNOS+ %Live (RAW 264.7 macrophages; [7]): 40.8% and 45.6% and 40.9%
iNOS and CD80 expression after LPS stimulation (RAW 264.7 macrophages; 12 mM): significantly reduced
CD80 MFI (RAW 264.7 macrophages; 12 mM 24 h, then 200 ng/mL LPS 6 h): 20826 and 21079 and 20195 and 20493 and 21214 and 20412
iNOS MFI (RAW 264.7 macrophages; 12 mM 24 h, then LPS 6 h): 95330 and 101513 and 93052 and 99228 and 94381 and 96644
CD80+ % Live (RAW 264.7 macrophages; [8]): 13.7% and 18.3% and 22.8%
CD86+ % Live (RAW 264.7 macrophages; [8]): 6.99% and 8.29% and 9.22%
iNOS+ %Live (RAW 264.7 macrophages; [8]): 26.5% and 43.9% and 50.9%
CD80+ % Live (RAW 264.7 macrophages; [9]): 43.1% and 48% and 48.3%
CD86+ % Live (RAW 264.7 macrophages; [9]): 14.5% and 13.5% and 15.9%
iNOS+ %Live (RAW 264.7 macrophages; [9]): 31.3% and 49.4% and 36.1%
iNOS-suppressing capacity during longer LPS stimulations (RAW 264.7 macrophages; high doses): maintained
plasma IL-1β (ApoE^–/– mice on an HFD): trend toward reduction
IL-6 and IFN-γ in plasma (ApoE^–/– mice on an HFD): reduced
Plasma LegendPlex IFNy (ApoE^–/– mice on an HFD): 1.54 and 21.65 and 44.82 and 28.44 and 36.42
Plasma LegendPlex IL-1B (ApoE^–/– mice on an HFD): 1.73 and 1.26 and 21.47 and 0.83 and 1.61 and 1.04 and 1.97 and 2.89 and 4.7
Plasma LegendPlex IL-6 (ApoE^–/– mice on an HFD): 1.18 and 0.95 and 0.92 and 0.99 and 2.99
